From patent publication US7745390B2, “Antimicrobial peptides” (priority 2005, dated 2010)
In brackets after ≈: the same amount, converted by molar mass. Square brackets hold non-standard residues; d marks the D form. Peptide text beside a SMILES is read from it.

Tests used:
[1] = Degree of helicity by circular dichroism; assay type: physicochemical
Protocol: For designing analogues of the present sequences, as taught herein, the Table also presents data on the degree of helicity of the active peptides, as measured by circular dichroism. It should be noted that a number of the active peptides listed in the figure are not alpha helices at all. At least one peptide tested was considered to be a random coil, with no detectible secondary structure evident in the circular dichroism measurement.
The MIC values are for E. coli in 10 mM phosphate buffer. The peptides were derived by the inventors from granulysin helix 3. […] It contains an equal number of hydrophobic and positively charged amino acids, can adapt an αhelical structure, and is very amphipathic. In contrast, the remaining 3 peptides all retain activity in DMEM even in the presence of serum. These peptides contain more positive residues than hydrophobic residues. G12.21 contains 2 proline residues, G11.46 is based on a modification of the helix three sequence (RRVSRRFMRR) (SEQ ID NO: 91) with a 5 arginine extension at the NH2 terminus, and G14.15 includes loop 2/RRVSRRFMRR (SEQ ID NO: 91).

bacterial strains = assay: organism not typed; assay type: cell-based
Protocol: Three preferred peptides G11.46, G12.21 and G14.15, discussed above, were further tested for antimicrobial efficacy under various conditions using the 10% FCS/DMEM assay as described under CFU assay. The incubation times with the bacteria and peptide was three hours, at which time the bacteria were diluted and plated on agar. […] The MIC for each compound is highlighted.
Table 9 below repeats some data presented above in Tables 6, 7, and 8.

SMILES: CSCC[C@H](NC(=O)[C@H](Cc1ccccc1)NC(=O)[C@@H](CCCNC(=N)N)NC(=O)[C@@H](CCCNC(=N)N)NC(=O)[C@H](CO)NC(=O)[C@@H](NC(=O)[C@@H](CCCNC(=N)N)NC(=O)[C@@H](CCCNC(=N)N)NC(=O)[C@@H](CCCNC(=N)N)NC(=O)[C@@H](CCCNC(=N)N)NC(=O)[C@@H](CCCNC(=N)N)NC(=O)[C@@H](CCCNC(=N)N)NC(=O)[C@H](N)CCCNC(=N)N)C(C)C)C(=O)N[C@H](CCCNC(=N)N)C(=O)N[C@H](CCCNC(=N)N)C(=O)O [Peptide G11.46, rrrrrrrVSrrFMrr] (H-[dR][dR][dR][dR][dR][dR][dR]VS[dR][dR]FM[dR][dR]-OH; N-terminus and C-terminus assumed)
- % α-helix ([1]; Table 4): 0%
- secondary structure ([1]; aqueous solution or TFE where stated): random coils in aqueous solution or in TFE
- MIC (bacterial strains; ATCC#25922, 3 h): 0.32 to 0.63 µM
- MIC (bacterial strains; ATCC#29213, 3 h): 0.04 to 0.08 µM
- MIC (bacterial strains; ATCC#53522, 3 h): 0.02 µM (≈ 0.044 µg/mL)
- MIC (bacterial strains; SL1344, 3 h): 0.63 to 1.25 µM
